Legend:
Format in all cases: cell-based
[1] = test system: SW480, PANC-1, MDA-MD-231, MDA-MD-468 and HELA cell lines; assay: MTT proliferation assay, non-CNS tumor cell lines; conditions: 12.5 μM, 5 or 6 days, in words
Procedure: (§1) Cells tested were subjected to the following protocol: Day 1: 7000 cells per well were seeded in a 96-well plate. Day 3: cells were treated with 12.5 μM of Verteporfin (treatment group) and its equivalent DMSO concentration (control group) in 200 μl of media/well. Proliferation was assessed using MTT at Day 8, 9 using the following method:
(§2) MTT stock solution (5 mg/ml) is added to each culture being assayed to equal one-tenth the original culture volume and incubated for 4 hr. At the end of the incubation period the medium is removed the converted dye is solubilized with 100% isopropanol. Absorbance of converted dye is measured at a wavelength of 570 nm.
The cell lines SW480 (colon adenocarcinoma), PANC-1 (pancreatic cancer), MDA-MD-231 (breast adenocarcinoma), MDA-MD-468 (metastatic breast carcinoma triple negative), and HELA (cervical carcinoma) were treated with 12.5 μM of the SAVA composition, Ver-RGDR, or DMSO (solvent control) for 5 days (FIG. 5a) or 6 days (FIG. 5b) in culture. Cell proliferation was then assessed using the MTT protocol. […] P-values: All cell lines tested at day 5 and 6 had p<0.0001 compared to their corresponding DMSO control. The results were statistically significant.

[2] = test system: malignant meningioma cell line KT21-MG1; assay: MTT cell survival, KT21-MG1
Procedure: (§3) Cells tested were subjected to the following protocol: Day 1: 7000 cells per well were seeded in a 96-well plate. […]
as §2
(§4) The malignant meningioma cell lines KT21-MG1 (FIG. 7), IOMM-Lee (FIG. 8), the primary patient-derived GBM cell lines, JHGB612 and GBM1A, and a patient-derived primary chordoma cell line, JHC7 (FIG. 9) were all tested with a SAVA composition of the present invention, using the protocol of Example 3. All should significant dose-dependent effect on cell survival when compared to controls.

[3] = test system: malignant meningioma cell line IOMM-Lee; assay: MTT cell survival, IOMM-Lee
Procedure: as §3, §2, §4

[4] = test system: primary patient-derived GBM cell line JHGB612; assay: MTT cell survival, JHGB612; conditions: dose-dependent, vs controls
Procedure: as §1, §2, §4

[5] = test system: primary patient-derived GBM cell line GBM1A; assay: MTT cell survival, GBM1A; conditions: dose-dependent, vs controls
Procedure: as §1, §2, §4

[6] = test system: patient-derived primary chordoma cell line JHC7; assay: MTT cell survival, JHC7; conditions: dose-dependent, vs controls
Procedure: as §1, §2, §4

verteporfin
proliferation of non-CNS tumor cells [1]: decreases proliferation | cell survival ([2]; 3 days of treatment): decreases cell survival | cell survival ([2]; 5 days of treatment): decreases cell survival | cell survival ([3]; 3 days of treatment): decreases cell survival | cell survival ([3]; 5 days of treatment): decreases cell survival | effect on proliferation and cell survival [4]: profound dose dependent effect on glioblastoma proliferation and cell survival | effect on proliferation and cell survival [5]: profound dose dependent effect on glioblastoma proliferation and cell survival | effect on cell survival and proliferation [6]: dose dependent effect on chordoma cell survival and proliferation
